Test results reported in patent US20070021488A1, “Method for treating nervous system disorders and conditions” (Wyeth, priority 2005, published 2007).
Where “and” joins values, the source holds several entries; their conditions need not be identical. Identical values can stand only once.

What was measured:
[1] = test system: Spinal Nerve Ligation (SNL) Model of Neuropathic Pain; assay: Spinal Nerve Ligation (SNL) model of neuropathic pain, tactile hypersensitivity; assay type: in vivo, rat; details: 30 mg/kg IP, 30-300 minutes after administration, FIG. 7
Excerpt: Subjects. Male Sprague-Dawley rats (Indianapolis, Ind.) weighing 150 to 200 g at time of arrival, were individually housed in wire cages in a climate-controlled room. A 12-hour light/dark cycle (lights on at 0630) was in effect, and food and water were available ad libitum.
Surgery—Spinal Nerve Ligation. Rats were anesthetized with 3.5% halothane in O2 at 1 L/min and maintained with 1.5% halothane in O2 during surgery. Ligation of the L5 and L6 nerves was produced by an incision through the left paraspinal muscles. The left L5 and L6 spinal nerves were isolated adjacent to the vertebral column and ligated tightly with 6-0 silk suture just distal to the dorsal root ganglion. The wound was closed in layers using 4-0 silk suture and wound clips. Testing began 7 days after surgery.
Assessment of tactile hypersensitivity. […] Baseline tactile sensitivity was assessed using a series of calibrated von Frey monofilaments (Stoelting; Wood Dale, Ill.) 0 to 3 days before surgery. […] The ability of a single dose of test compound to reverse established hypersensitivity was assessed using a time course procedure. […]
Results are presented as the 50% threshold values (50% threshold in g force) estimated by the Dixon non-parametric test. […] Significant main effects were analyzed further by subsequent least significant difference analysis. […]

[2] = molecular target: T1, human dopamine transporter (hDAT) (Homo sapiens, UniProt Q01959); assay: Dopamine transporter (hDAT) membrane binding assay
T1 construct: purchased Perkin Elmer RBHDATM
Description: (§1) MDCK-Net6 cells, stably transfected with human hNET [15] were cultured in growth medium containing high glucose DMEM (Gibco, Cat. No. 11995), 10% FBS (dialyzed, heat-inactivated, US Bio-Technologies, Lot FBD1129HI) and 500 μg/ml G418 (Gibco, Cat. No. 10131). Cells were plated at 300,000/T75 flask and cells were split twice weekly. The JAR cell line (human placental choriocarcinoma) was purchased from ATCC (Cat. No. HTB-144). The cells were cultured in growth medium containing RPMI 1640 (Gibco, Cat. No. 72400), 10% FBS (Irvine, Cat. No. 3000), 1% sodium pyruvate (Gibco, Cat. No. 1136) and 0.25% glucose. Cells were plated at 250,000 cells/T75 flask and split twice weekly. For cell based assays, cells were plated in Wallac 96-well sterile plates (Perkin Elmer, Cat. No. 3983498). For the human dopamine transporter (hDAT) binding assay, membranes from cells expressing recombinant hDAT are purchased from Perkin Elmer (Cat. No. RBHDATM, Lot#2227) and maintained at −80° C. until assay day.
For each experiment, a data stream of cpm values collected from the Wallac Microbeta counter was downloaded to a Microsoft Excel statistical application program. Calculations of IC50/EC50 values were made using the transformed-both-sides logistic dose response program written by Wyeth Biometrics Department.

[3] = test system: ovariectomized (OVX) rats; assay: Telemetry rat model of ovariectomy-induced thermoregulatory dysfunction (tail skin temperature); assay type: in vivo; details: 30 mg/kg, sc
Excerpt: This model has been modified from a previously reported protocol describing estrogen regulation of diurnal tail skin temperature (TST) patterns (Berendsen, et al., European Journal of Pharmacology, 2001, 419(1): 47-54). […] A temperature and physical activity transmitter (PhysioTel TA10TA-F40, Data Sciences International) was implanted subcutaneously in the dorsal scapular region and the tip of the temperature probe was tunneled subcutaneously 2.5 cm beyond the base of the tail. After a 7-day recovery period, TST readings were continuously recorded for the remainder of the study. Tail skin temperature readings were collected from each animal every 5 minutes with values obtained over a 10 second sampling period. The day before test day, an average baseline TST value was calculated for each animal by averaging temperature readings recorded during the 12 hour active (dark) phase. […]
Statistical analysis: Evaluation of a compound's ability to restore normal lowering of TST in the telemetry model was analyzed using hourly TST values calculated for each animal by averaging the 12 temperature readings obtained every 5 minutes over that recording time. […]
The effect of test compound is measured by evaluating the following parameters in this model: onset of action, duration of effect on TST, maximal change in TST and mean change in TST over the duration of the compound effect.

[4] = molecular target: human norepinephrine transporter (hNET) (Homo sapiens, UniProt P23975); assay: cell-based
Description: as §1
On day 1, cells were plated at 3,000 cells/well in growth medium and maintained in a cell incubator (37° C., 5% CO2). […] The plates were counted in a Wallac Microbeta counter (PerkinElmer) to collect the raw cpm data. […]

[5] = molecular target: T2, human serotonin transporter (hSERT) (Homo sapiens, UniProt P31645); assay: Serotonin (5-HT) uptake assay in JAR cells; assay type: cell-based; details: [3H]5-HT uptake, read-out: hSERT function uptake (EC50 in nm)
T2 construct: The methods for 5-HT functional reuptake using the JAR cell line; host or cells: JAR (human placental choriocarcinoma), staurosporine-stimulated
Description: as §1
The methods for 5-HT functional reuptake using the JAR cell line were modified using a previous literature report. On day 1, cells were plated at 15,000 cells/well in 96-well plates containing growth medium (RPMI 1640 with 10% FBS) and maintained in a cell incubator (37° C., 5% CO2). […] The plates were counted in a Wallac Microbeta counter (PerkinElmer) to collect the raw cpm data. […]

T1 sequence (Q01959 whole entry): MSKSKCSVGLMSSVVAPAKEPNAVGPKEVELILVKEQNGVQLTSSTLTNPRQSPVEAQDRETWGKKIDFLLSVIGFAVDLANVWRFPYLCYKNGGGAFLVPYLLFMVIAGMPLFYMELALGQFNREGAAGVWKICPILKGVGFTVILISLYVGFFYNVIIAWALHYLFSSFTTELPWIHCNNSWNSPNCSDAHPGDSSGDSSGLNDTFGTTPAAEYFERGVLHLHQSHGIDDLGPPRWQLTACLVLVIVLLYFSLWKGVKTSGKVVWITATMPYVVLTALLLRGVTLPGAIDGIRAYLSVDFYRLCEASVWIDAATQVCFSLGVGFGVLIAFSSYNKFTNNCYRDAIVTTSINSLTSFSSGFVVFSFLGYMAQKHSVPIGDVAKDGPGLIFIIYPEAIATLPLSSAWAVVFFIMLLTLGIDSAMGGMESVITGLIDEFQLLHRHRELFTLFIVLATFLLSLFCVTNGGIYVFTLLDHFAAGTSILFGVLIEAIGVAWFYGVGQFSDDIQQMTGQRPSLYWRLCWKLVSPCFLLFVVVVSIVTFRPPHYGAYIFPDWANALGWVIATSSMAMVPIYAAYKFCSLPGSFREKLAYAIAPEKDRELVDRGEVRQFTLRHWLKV
T2 sequence (P31645 whole entry): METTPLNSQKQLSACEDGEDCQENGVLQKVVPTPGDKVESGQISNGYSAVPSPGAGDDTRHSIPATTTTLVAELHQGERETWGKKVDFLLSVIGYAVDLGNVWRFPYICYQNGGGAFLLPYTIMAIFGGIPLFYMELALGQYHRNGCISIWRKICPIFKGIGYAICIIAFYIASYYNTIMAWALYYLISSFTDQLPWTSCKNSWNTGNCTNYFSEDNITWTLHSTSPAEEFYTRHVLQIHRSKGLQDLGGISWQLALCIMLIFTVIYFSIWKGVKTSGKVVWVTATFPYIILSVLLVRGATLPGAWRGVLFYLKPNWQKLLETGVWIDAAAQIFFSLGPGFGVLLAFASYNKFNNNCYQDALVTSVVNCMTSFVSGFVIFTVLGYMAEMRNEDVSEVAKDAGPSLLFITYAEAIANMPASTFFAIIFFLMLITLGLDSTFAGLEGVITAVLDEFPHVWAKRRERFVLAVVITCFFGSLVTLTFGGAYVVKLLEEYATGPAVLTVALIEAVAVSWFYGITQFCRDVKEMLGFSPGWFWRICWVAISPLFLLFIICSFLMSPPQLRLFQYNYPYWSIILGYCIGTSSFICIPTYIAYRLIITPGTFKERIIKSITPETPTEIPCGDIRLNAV
Sequence of human norepinephrine transporter (hNET) (P23975 whole entry): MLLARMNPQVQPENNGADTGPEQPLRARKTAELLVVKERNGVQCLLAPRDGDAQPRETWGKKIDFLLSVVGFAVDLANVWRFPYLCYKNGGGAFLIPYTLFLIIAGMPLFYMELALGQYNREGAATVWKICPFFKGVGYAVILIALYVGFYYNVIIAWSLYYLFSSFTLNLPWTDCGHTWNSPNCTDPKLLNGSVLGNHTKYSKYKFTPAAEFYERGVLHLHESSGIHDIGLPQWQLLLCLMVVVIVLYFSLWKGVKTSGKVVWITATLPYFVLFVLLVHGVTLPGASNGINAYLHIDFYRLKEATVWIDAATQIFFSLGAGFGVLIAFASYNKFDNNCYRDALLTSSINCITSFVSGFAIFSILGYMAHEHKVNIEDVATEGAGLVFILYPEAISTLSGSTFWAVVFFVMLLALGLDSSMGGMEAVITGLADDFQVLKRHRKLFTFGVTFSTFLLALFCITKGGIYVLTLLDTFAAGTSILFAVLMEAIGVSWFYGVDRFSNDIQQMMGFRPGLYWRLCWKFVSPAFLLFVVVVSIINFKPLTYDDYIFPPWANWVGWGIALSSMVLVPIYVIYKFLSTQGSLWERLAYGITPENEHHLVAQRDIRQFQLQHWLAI

Row | Structure (SMILES) | Reversal of tactile allodynia in the SNL neuropathic pain model [1] | hDAT binding (% I at 1 μM) ([2]; 1 μM) [% I] | hDAT binding (% I at 10 μM) [2] | Restoration of normal TST in OVX-induced thermoregulatory dysfunction telemetry model [3] | EC50 [4] [µM] | EC50 [5] [µM]
1 | Clc1ccc(C23CNCC2C3)cc1Cl (racemic) [Racemic 1-(3,4-dichlorophenyl)-3-azabicyclo[3.1.0]hexane, 1-(3,4-dichlorophenyl)-3-azabicyclo[3.1.0]hexane] | significantly reverses tactile allodynia | – | – | – | – | –
2 | Cc1ccc(C23CNCC2C3)cc1 (racemic) [Racemic 1-(4-methylphenyl)-3-azabicyclo[3.1.0]hexane, 1-(4-methylphenyl)-3-azabicyclo[3.1.0]hexane] | – | 26.5 | 45 % I and 52.1 % I | restores normal TST | – | –
3 | Cc1ccc([C@@]23CNC[C@@H]2C3)cc1 (single isomer, unassigned) [(+)-1-(4-methylphenyl)-3-azabicyclo[3.1.0]hexane] | – | – | 51 % I | restores normal TST | 0.148 | 7.35
